Experiments:
[1] = test system: human ether‐a‐go‐go‐related gene channel; set-up: method as in PMID 27926532, PMID 36283983; details: cited from earlier work
[2] = Plasma PK after a single oral dose (Cycle 0 Day 1); format: in vivo, patients
Method: CVL218 was administered orally, and this dose‐escalation trial included nine dose levels: 100 mg QD (50 mg BID), 200 mg QD (100 mg BID), 400 mg QD (200 mg BID), 700 mg QD (350 mg BID), 1000 mg QD (500 mg BID), 1200 mg QD (600 mg BID), 1400 mg QD (700 mg BID), 1700 mg QD (850 mg BID), and 2000 mg QD (1000 mg BID). Patients enrolled in the study received a single oral dose on the first day, followed by continuous multiple dosing (twice a day taking 12 h apart) after 72 h, with the treatment cycle lasting 4 weeks. The period during which patients received a single dose is designated as cycle 0 (C0), lasting 72 h. After this period, patients begin multiple dosing, referred to as cycle 1 (C1). An initial accelerated titration design was employed for the three lowest dose groups, and the “3+3” design was applied starting with the 300 mg BID cohort.
A clinical PK study of CVL218 was conducted, involving blood samples collection during single‐dose administration (before treatment and 0.5, 1, 2, 3, 4, 5, 6, 8, 10, 12, and 24 h after treatment on C0D1) and multiple dosing (before treatment and 0.5, 1, 2, 3, 4, 5, 6, 8, 10, and 12 h after treatment on C1D1; before treatment on C1D8, C1D15, and C1D22; before treatment and 0.5, 1, 2, 3, 4, 5, 6, 8, 10, and 12 h after treatment on C1D28)
Single‐dose and multiple‐dose PK parameters included C max, T max, elimination half‐life (T 1/2), AUC0– t , AUC0–inf, oral clearance (CL/F), and apparent volume of distribution (V z/F) for CVL218. Tumor response was assessed per RECIST 1.1. ORR was defined as proportion of patients with a CR or PR on at least one visit, while DCR was defined as proportion of patients with a CR or PR or SD. PFS was defined as the time from the first dose of either drug to investigator assessed radiologic PD or to death of any cause. PFS would be censored at the time of last tumor assessment.
Subjects who received at least one dose of CVL218 with postadministration safety records were included in safety analysis set. Subjects who received at least one dose of CVL218 with at least one evaluable PK parameter were included in PK analysis set. Per‐protocol set were used for efficacy analysis. Descriptive statistics of safety were presented per CTCAE v5.0. The PK parameters T max and T 1/2 were shown as the median (min, max) and mean ± SD, respectively. A two‐sided p < 0.05 was considered to indicate statistical significance. Statistical analysis was performed by using GraphPad prism 8.0.2 and R‐4.3.3.

[3] = set-up: method as in PMID 36283983; details: cited from earlier work
[4] = single dose C0D1, 100mg QD, n 1
[5] = single dose C0D1, 200mg QD, n 1
[6] = single dose C0D1, 400mg QD, n 1
[7] = single dose C0D1, 700mg QD, n 4
[8] = single dose C0D1, 1000mg QD, n 4
[9] = single dose C0D1, 1200mg QD, n 4
[10] = single dose C0D1, 1400mg QD, n 6
[11] = single dose C0D1, 1700mg QD, n 5

SMILES: CNCc1ccc(-c2cc3cc(F)cc(C(N)=O)c3o2)cc1.Cl [CVL218]
- inhibitory activity on the hERG channel [1]: without inhibitory activity
- AUC0-inf, Geometric Mean [2, 4]: 231.0 ng·h/mL
- AUC0-t, Geometric Mean [2, 4]: 207.0 ng·h/mL
- Cl/F, Geometric Mean [2, 4]: 432000.0 mL/h
- Cmax, Geometric Mean [2, 4]: 40.9 ng/mL
- T1/2, Mean [2, 4]: 3.6 h
- Vz/F, Geometric Mean [2, 4]: 2270000.0 mL
- AUC0-inf, Geometric Mean [2, 5]: 1360.0 ng·h/mL
- AUC0-t, Geometric Mean [2, 5]: 1310.0 ng·h/mL
- Cl/F, Geometric Mean [2, 5]: 147000.0 mL/h
- Cmax, Geometric Mean [2, 5]: 218.0 ng/mL
- T1/2, Mean [2, 5]: 5.1 h
- Vz/F, Geometric Mean [2, 5]: 1080000.0 mL
- AUC0-inf, Geometric Mean [2, 6]: 2010.0 ng·h/mL
- AUC0-t, Geometric Mean [2, 6]: 1900.0 ng·h/mL
- Cl/F, Geometric Mean [2, 6]: 199000.0 mL/h
- Cmax, Geometric Mean [2, 6]: 334.0 ng/mL
- T1/2, Mean [2, 6]: 6.0 h
- Vz/F, Geometric Mean [2, 6]: 1710000.0 mL
- AUC0-inf, Geometric Mean [2, 7]: 3450.0 ng·h/mL
- AUC0-t, Geometric Mean [2, 7]: 3260.0 ng·h/mL
- Cl/F, Geometric Mean [2, 7]: 203000.0 mL/h
- Cmax, Geometric Mean [2, 7]: 360.0 ng/mL
- T1/2, Mean [2, 7]: 6.3 h
- Vz/F, Geometric Mean [2, 7]: 1700000.0 mL
- AUC0-inf, Geometric Mean [2, 8]: 4820.0 ng·h/mL
- AUC0-t, Geometric Mean [2, 8]: 4095.0 ng·h/mL
- Cl/F, Geometric Mean [2, 8]: 212000.0 mL/h
- Cmax, Geometric Mean [2, 8]: 579.5 ng/mL
- T1/2, Mean [2, 8]: 6.2 h
- Vz/F, Geometric Mean [2, 8]: 2205000.0 mL
- AUC0-inf, Geometric Mean [2, 9]: 4415.0 ng·h/mL
- AUC0-t, Geometric Mean [2, 9]: 4175.0 ng·h/mL
- Cl/F, Geometric Mean [2, 9]: 276000.0 mL/h
- Cmax, Geometric Mean [2, 9]: 547.5 ng/mL
- T1/2, Mean [2, 9]: 6.3 h
- Vz/F, Geometric Mean [2, 9]: 2155000.0 mL
- AUC0-inf, Geometric Mean [2, 10]: 5360.0 ng·h/mL
- AUC0-t, Geometric Mean [2, 10]: 5190.0 ng·h/mL
- Cl/F, Geometric Mean [2, 10]: 274500.0 mL/h
- Cmax, Geometric Mean [2, 10]: 633.0 ng/mL
- T1/2, Mean [2, 10]: 4.7 h
- Vz/F, Geometric Mean [2, 10]: 1920000.0 mL
- AUC0-inf, Geometric Mean [2, 11]: 4180.0 ng·h/mL
- AUC0-t, Geometric Mean [2, 11]: 4070.0 ng·h/mL
- Cl/F, Geometric Mean [2, 11]: 407000.0 mL/h
- Cmax, Geometric Mean [2, 11]: 408.0 ng/mL
- T1/2, Mean [2, 11]: 5.8 h
- Vz/F, Geometric Mean [2, 11]: 2780000.0 mL
- median Tmax ([2]; single dose, range over cohorts): 1 to 4 h
- mean half-life ([2]; single oral dose, range over cohorts): 3.6 to 6.3 h
- blood–brain barrier crossing [3]: readily crosses the blood–brain barrier

From publication PMC12238723, “Phase I Clinical Trial of CVL218, a Novel PARP1/2 Inhibitor, in Patients with Advanced Solid Tumors” (MedComm, 2025)
